Measurements reported in the NIST ThermoML archive (doi:10.1016/j.jct.2019.06.032).
Numbers after ± are expanded uncertainties.

How the values were obtained:
[1] = 101 kPa, Liquid; for viscosity: Capillary tube (Ostwald / Ubbelohde) method; for mass density: Vibrating tube method
[2] = xn = mol fraction of the nth substance listed; conditions: 101 kPa, Liquid; for viscosity: Capillary tube (Ostwald / Ubbelohde) method; for mass density: Vibrating tube method

Structure (SMILES)	viscosity ([1]; 293.15 K)	mass density ([1]; 293.15 K)	viscosity ([1]; 303.15 K)	mass density ([1]; 303.15 K)	viscosity ([1]; 313.15 K)	mass density ([1]; 313.15 K)	viscosity ([1]; 323.15 K)	mass density ([1]; 323.15 K)	viscosity ([1]; 333.15 K)	mass density ([1]; 333.15 K)	viscosity ([2]; 293.15 K, x2 = 0)	viscosity ([2]; 303.15 K, x2 = 0)	viscosity ([2]; 313.15 K, x2 = 0)	mass density ([2]; 313.15 K, x2 = 0)	viscosity ([2]; 323.15 K, x2 = 0)	viscosity ([2]; 333.15 K, x2 = 0)	mass density ([2]; 333.15 K, x2 = 0)	further results
CCN(CC)CCO [(diethylamino)ethanol]	4.848 ± 0.97 mPa·s	891.2 ± 10 kg/m3	3.41 ± 0.68 mPa·s	874.4 ± 10 kg/m3	2.466 ± 0.49 mPa·s	865.4 ± 10 kg/m3	1.855 ± 0.37 mPa·s	856.4 ± 10 kg/m3	1.431 ± 0.29 mPa·s	845.6 ± 10 kg/m3	–	–	–	–	–	–	–	–
NCCO [2-aminoethan-1-ol]	23.79 ± 4.8 mPa·s	1016.9 ± 10 kg/m3	14.83 ± 3 mPa·s	1009.5 ± 10 kg/m3	9.89 ± 2 mPa·s	1001.1 ± 10 kg/m3	6.872 ± 1.4 mPa·s	992.7 ± 10 kg/m3	4.99 ± 1 mPa·s	984.3 ± 10 kg/m3	–	–	–	–	–	–	–	–
O [water] + CCN(CC)CCO	–	–	–	–	–	–	–	–	–	–	1.004 ± 0.2 mPa·s	0.813 ± 0.16 mPa·s	0.662 ± 0.13 mPa·s	992.3 ± 10 kg/m3	0.57 ± 0.11 mPa·s	0.483 ± 0.097 mPa·s	983.3 ± 10 kg/m3	–
O [water] + NCCO	–	–	–	–	–	–	–	–	–	–	1.004 ± 0.2 mPa·s	0.813 ± 0.16 mPa·s	0.662 ± 0.13 mPa·s	992.3 ± 10 kg/m3	0.57 ± 0.11 mPa·s	0.483 ± 0.097 mPa·s	983.3 ± 10 kg/m3	–
NCCO [2-aminoethan-1-ol] + CCN(CC)CCO	–	–	–	–	–	–	–	–	–	–	–	–	–	–	–	–	–	viscosity ([2]; 293.15 K, x1 = 1): 23.79 ± 4.8 mPa·s; mass density ([2]; 293.15 K, x1 = 1): 1016.9 ± 10 kg/m3; viscosity ([2]; 303.15 K, x1 = 1): 14.83 ± 3 mPa·s; mass density ([2]; 303.15 K, x1 = 1): 1009.5 ± 10 kg/m3; viscosity ([2]; 313.15 K, x1 = 1): 9.89 ± 2 mPa·s; mass density ([2]; 313.15 K, x1 = 1): 1001.1 ± 10 kg/m3; viscosity ([2]; 323.15 K, x1 = 1): 6.872 ± 1.4 mPa·s; mass density ([2]; 323.15 K, x1 = 1): 992.7 ± 10 kg/m3; viscosity ([2]; 333.15 K, x1 = 1): 4.99 ± 1 mPa·s; mass density ([2]; 333.15 K, x1 = 1): 984.3 ± 10 kg/m3
